Results from PMC9824012, “Exploring Antimicrobial Peptides Efficacy against Fire Blight (Erwinia amylovora)” (Plants, 2022).

Test system: Erwinia amylovora
Assay: Transmission electron microscopy of treated cells
Type: cell-based, Erwinia amylovora strain PGL Z1
Conditions: antibiotic control 0.5 mg/mL
Protocol: Aliquots of E. amylovora suspensions were incubated with the KL29 for 15 min at room temperature to investigate peptide antibacterial modes of action (lytic and non-lytic). E. amylovora suspensions treated with 0.5 mg/mL of streptomycin (bacteriostatic antibiotic), and ampicillin (bactericidal antibiotic) were used as controls. Preparations were observed under TEM (FEI MORGAGNI 282D, Hillsboro, OR, USA) by the dip method: the carbon coated copper/rhodium grids were incubated with treated and untreated bacterial suspension for 2 min, and then rinsed with 200 μL of distilled water. Negative staining was obtained by floating the grids on 200 μL of 0.5 % w/v UA-zero EM STAIN (Agar-Scientific Ltd., Stansted, UK) solution and observing them under the EM using an accelerating voltage of 80 kV.

| Structure (SMILES) | TEM morphology of treated E. amylovora cells (in words) |
| --- | --- |
| CC1(C)S[C@@H]2[C@H](NC(=O)[C@H](N)c3ccccc3)C(=O)N2[C@H]1C(=O)O [ampicillin] | damaged cell walls and the decomposition of inner structures |
| [H]/N=C(/N)N[C@H]1[C@H](O)[C@@H](O)[C@H](O[C@@H]2O[C@@H](C)[C@](O)(C=O)[C@H]2O[C@@H]2O[C@@H](CO)[C@H](O)[C@@H](O)[C@@H]2NC)[C@@H](N/C(N)=N\[H])[C@@H]1O [streptomycin] | reduced cell lysis and morphological alterations similar to those treated with KL29 at 250 µM |
